Results published in ChEMBL document CHEMBL4304804, “Synthesis and biological evaluation of calycanthaceous alkaloid analogs” (Bioorg Med Chem, 2019).
Values after ≈ are worked out from the molar mass of the structure shown. Active and inactive are the calls of the source. No cut-off for these calls is given here.

Legend:
Cytospora = experiment: Antifungal activity against Cytospora juglandis assessed as reduction in fungal cell growth incubated for 48 hrs by serial dilution method; assay type: functional
Acetylcholinesterase = Acetylcholinesterase (Electrophorus electricus, UniProt O42275); experiment: Inhibition of electric eel AChE by Ellman's colorimetry
Acetylcholinesterase, sequence (O42275 whole entry): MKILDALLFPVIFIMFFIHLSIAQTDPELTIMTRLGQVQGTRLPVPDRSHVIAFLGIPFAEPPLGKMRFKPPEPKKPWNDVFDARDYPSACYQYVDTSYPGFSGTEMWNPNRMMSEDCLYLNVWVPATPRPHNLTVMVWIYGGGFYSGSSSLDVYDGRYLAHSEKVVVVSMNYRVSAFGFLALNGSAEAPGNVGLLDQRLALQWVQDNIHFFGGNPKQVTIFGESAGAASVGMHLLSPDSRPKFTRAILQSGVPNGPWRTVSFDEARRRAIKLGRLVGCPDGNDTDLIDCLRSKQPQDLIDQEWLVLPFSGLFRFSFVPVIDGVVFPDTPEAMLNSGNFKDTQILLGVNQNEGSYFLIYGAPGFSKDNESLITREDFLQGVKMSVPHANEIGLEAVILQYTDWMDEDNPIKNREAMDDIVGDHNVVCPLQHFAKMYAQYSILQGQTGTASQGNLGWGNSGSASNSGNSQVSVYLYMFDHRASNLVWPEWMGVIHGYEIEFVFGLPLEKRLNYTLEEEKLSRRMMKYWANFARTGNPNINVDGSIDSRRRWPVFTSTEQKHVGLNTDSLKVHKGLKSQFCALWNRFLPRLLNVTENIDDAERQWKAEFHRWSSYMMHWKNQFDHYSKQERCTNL

Candida tropicalis = experiment: Antifungal activity against Candida tropicalis assessed as reduction in fungal cell growth incubated for 48 hrs by serial dilution method; assay type: functional
Verticillium dahliae = experiment: Antifungal activity against Verticillium dahliae assessed as reduction in fungal cell growth incubated for 48 hrs by serial dilution method; assay type: functional
Ralstonia solanacearum = experiment: Antibacterial activity against Ralstonia solanacearum assessed as reduction in bacterial cell growth incubated for 24 hrs by filter paper assay; assay type: functional
Bacillus cereus = experiment: Antibacterial activity against Bacillus cereus assessed as reduction in bacterial cell growth incubated for 24 hrs by filter paper assay; assay type: functional
Candida = experiment: Antifungal activity against […] assessed as reduction in fungal cell growth incubated for 48 hrs by serial dilution method; assay type: functional
Fusarium oxysporum = experiment: Antifungal activity against Fusarium oxysporum assessed as reduction in fungal cell growth incubated for 48 hrs by serial dilution method; assay type: functional
Aspergillus flavus = experiment: Antifungal activity against Aspergillus flavus assessed as reduction in fungal cell growth incubated for 48 hrs by serial dilution method; assay type: functional
Aspergillus niger = experiment: Antifungal activity against Aspergillus niger assessed as reduction in fungal cell growth incubated for 48 hrs by serial dilution method; assay type: functional
Curvularia lunata = experiment: Antifungal activity against Curvularia lunata assessed as reduction in fungal cell growth incubated for 48 hrs by serial dilution method; assay type: functional
Pseudomonas aeruginosa = experiment: Antibacterial activity against Pseudomonas aeruginosa assessed as reduction in bacterial cell growth incubated for 24 hrs by filter paper assay; assay type: functional
[1] = system: Colletotrichum orbiculare; experiment: Antifungal activity against Colletotrichum orbiculare assessed as reduction in fungal cell growth incubated for 48 hrs by serial dilution method; assay type: functional
Penicillium citrinum = experiment: Antifungal activity against Penicillium citrinum assessed as reduction in fungal cell growth incubated for 48 hrs by serial dilution method; assay type: functional
Staphylococcus aureus = experiment: Antibacterial activity against Staphylococcus aureus assessed as reduction in bacterial cell growth incubated for 24 hrs by filter paper assay; assay type: functional
[2] = system: Fusarium oxysporum f. sp. vasinfectum; experiment: Antifungal activity against Fusarium oxysporum sp. vasinfectum assessed as reduction in fungal cell growth incubated for 48 hrs by serial dilution method; assay type: functional
Escherichia coli = experiment: Antibacterial activity against Escherichia coli assessed as reduction in bacterial cell growth incubated for 24 hrs by filter paper assay; assay type: functional
Cryptococcus neoformans = experiment: Antifungal activity against Cryptococcus neoformans assessed as reduction in fungal cell growth incubated for 48 hrs by serial dilution method; assay type: functional

Structure (SMILES): Cc1ccccc1CN1c2ccccc2C2(Cc3ccccc3C)CCN(C(=O)c3ccccc3C)C12 (stereo unspecified)
- MIC (Cytospora): 250 µg/mL (≈ 514 µM)
- IC50 (Acetylcholinesterase): 229 µM
- MIC (Candida tropicalis): 250 µg/mL (≈ 514 µM)
- MIC (Verticillium dahliae): 250 µg/mL (≈ 514 µM)
- MIC (Ralstonia solanacearum): 125 µg/mL (≈ 257 µM)
- MIC (Bacillus cereus): 250 µg/mL (≈ 514 µM)
- MIC (Candida): 250 µg/mL (≈ 514 µM)
- MIC (Fusarium oxysporum): 250 µg/mL (≈ 514 µM)
- MIC (Aspergillus flavus): 250 µg/mL (≈ 514 µM)
- MIC (Aspergillus niger): 125 µg/mL (≈ 257 µM)
- MIC (Curvularia lunata): 62.5 µg/mL (≈ 128 µM)
- MIC (Pseudomonas aeruginosa): inactive
- MIC [1]: inactive
- MIC (Penicillium citrinum): 250 µg/mL (≈ 514 µM)
- MIC (Staphylococcus aureus): 250 µg/mL (≈ 514 µM)
- MIC [2]: 250 µg/mL (≈ 514 µM)
- MIC (Escherichia coli): inactive
- MIC (Cryptococcus neoformans): inactive

Structure (SMILES): CCCCC(=O)N1CCC2(Cc3ccccc3C)c3ccccc3N(Cc3ccccc3C)C12 (stereo unspecified)
- MIC (Cytospora): 250 µg/mL (≈ 552 µM)
- IC50 (Acetylcholinesterase): 328 µM
- MIC (Candida tropicalis): 125 µg/mL (≈ 276 µM)
- MIC (Verticillium dahliae): 31.2 µg/mL (≈ 69 µM)
- MIC (Ralstonia solanacearum): 250 µg/mL (≈ 552 µM)
- MIC (Bacillus cereus): 250 µg/mL (≈ 552 µM)
- MIC (Candida): 250 µg/mL (≈ 552 µM)
- MIC (Fusarium oxysporum): 125 µg/mL (≈ 276 µM)
- MIC (Aspergillus flavus): 250 µg/mL (≈ 552 µM)
- MIC (Aspergillus niger): 250 µg/mL (≈ 552 µM)
- MIC (Curvularia lunata): inactive
- MIC (Pseudomonas aeruginosa): 250 µg/mL (≈ 552 µM)
- MIC [1]: inactive
- MIC (Penicillium citrinum): 250 µg/mL (≈ 552 µM)
- MIC (Staphylococcus aureus): 250 µg/mL (≈ 552 µM)
- MIC [2]: inactive
- MIC (Escherichia coli): 250 µg/mL (≈ 552 µM)
- MIC (Cryptococcus neoformans): inactive

Structure (SMILES): CCCCCCC(=O)N1CCC2(Cc3cccc(C)c3)c3ccccc3N(Cc3cccc(C)c3)C12 (stereo unspecified)
- MIC (Cytospora): 62.5 µg/mL (≈ 130 µM)
- IC50 (Acetylcholinesterase): 18.2 µM
- MIC (Candida tropicalis): 250 µg/mL (≈ 520 µM)
- MIC (Verticillium dahliae): 125 µg/mL (≈ 260 µM)
- MIC (Ralstonia solanacearum): 125 µg/mL (≈ 260 µM)
- MIC (Bacillus cereus): 125 µg/mL (≈ 260 µM)
- MIC (Candida): 250 µg/mL (≈ 520 µM)
- MIC (Fusarium oxysporum): 125 µg/mL (≈ 260 µM)
- MIC (Aspergillus flavus): 250 µg/mL (≈ 520 µM)
- MIC (Aspergillus niger): 250 µg/mL (≈ 520 µM)
- MIC (Curvularia lunata): 62.5 µg/mL (≈ 130 µM)
- MIC (Pseudomonas aeruginosa): 125 µg/mL (≈ 260 µM)
- MIC [1]: 250 µg/mL (≈ 520 µM)
- MIC (Penicillium citrinum): 250 µg/mL (≈ 520 µM)
- MIC (Staphylococcus aureus): 250 µg/mL (≈ 520 µM)
- MIC [2]: 250 µg/mL (≈ 520 µM)
- MIC (Escherichia coli): 250 µg/mL (≈ 520 µM)
- MIC (Cryptococcus neoformans): inactive

Structure (SMILES): CCCCCC(=O)N1CCC2(Cc3ccccc3C)c3ccccc3N(Cc3ccccc3C)C12 (stereo unspecified)
- MIC (Cytospora): 125 µg/mL (≈ 268 µM)
- IC50 (Acetylcholinesterase): 217 µM
- MIC (Candida tropicalis): inactive
- MIC (Verticillium dahliae): 62.5 µg/mL (≈ 134 µM)
- MIC (Ralstonia solanacearum): 250 µg/mL (≈ 536 µM)
- MIC (Bacillus cereus): inactive
- MIC (Candida): 125 µg/mL (≈ 268 µM)
- MIC (Fusarium oxysporum): 125 µg/mL (≈ 268 µM)
- MIC (Aspergillus flavus): 250 µg/mL (≈ 536 µM)
- MIC (Aspergillus niger): 250 µg/mL (≈ 536 µM)
- MIC (Curvularia lunata): 125 µg/mL (≈ 268 µM)
- MIC (Pseudomonas aeruginosa): 125 µg/mL (≈ 268 µM)
- MIC [1]: 250 µg/mL (≈ 536 µM)
- MIC (Penicillium citrinum): 250 µg/mL (≈ 536 µM)
- MIC (Staphylococcus aureus): inactive
- MIC [2]: inactive
- MIC (Escherichia coli): inactive
- MIC (Cryptococcus neoformans): inactive

Structure (SMILES): CN1c2ccccc2C2(O)CCCN(C(=O)c3cccc(F)c3)C12 (stereo unspecified)
- MIC (Cytospora): inactive
- IC50 (Acetylcholinesterase): 0.337 µM
- MIC (Candida tropicalis): inactive
- MIC (Verticillium dahliae): 250 µg/mL (≈ 766 µM)
- MIC (Ralstonia solanacearum): 250 µg/mL (≈ 766 µM)
- MIC (Bacillus cereus): inactive
- MIC (Candida): inactive
- MIC (Fusarium oxysporum): inactive
- MIC (Aspergillus flavus): inactive
- MIC (Aspergillus niger): inactive
- MIC (Curvularia lunata): inactive
- MIC (Pseudomonas aeruginosa): 250 µg/mL (≈ 766 µM)
- MIC [1]: inactive
- MIC (Penicillium citrinum): inactive
- MIC (Staphylococcus aureus): inactive
- MIC [2]: inactive
- MIC (Escherichia coli): 250 µg/mL (≈ 766 µM)
- MIC (Cryptococcus neoformans): inactive

Structure (SMILES): CCCC(=O)N1CCC2(Cc3cccc(C)c3)c3ccccc3N(Cc3cccc(C)c3)C12 (stereo unspecified)
- MIC (Cytospora): 62.5 µg/mL (≈ 142 µM)
- IC50 (Acetylcholinesterase): 6.52 µM
- MIC (Candida tropicalis): 125 µg/mL (≈ 285 µM)
- MIC (Verticillium dahliae): 62.5 µg/mL (≈ 142 µM)
- MIC (Ralstonia solanacearum): 250 µg/mL (≈ 570 µM)
- MIC (Bacillus cereus): 250 µg/mL (≈ 570 µM)
- MIC (Candida): 250 µg/mL (≈ 570 µM)
- MIC (Fusarium oxysporum): 125 µg/mL (≈ 285 µM)
- MIC (Aspergillus flavus): 250 µg/mL (≈ 570 µM)
- MIC (Aspergillus niger): 125 µg/mL (≈ 285 µM)
- MIC (Curvularia lunata): inactive
- MIC (Pseudomonas aeruginosa): 250 µg/mL (≈ 570 µM)
- MIC [1]: 250 µg/mL (≈ 570 µM)
- MIC (Penicillium citrinum): inactive
- MIC (Staphylococcus aureus): 250 µg/mL (≈ 570 µM)
- MIC [2]: inactive
- MIC (Escherichia coli): 250 µg/mL (≈ 570 µM)
- MIC (Cryptococcus neoformans): inactive

Structure (SMILES): COc1ccc(C(=O)N2CCC3(Cc4cccc(C)c4)c4ccccc4N(Cc4cccc(C)c4)C23)cc1 (stereo unspecified)
- MIC (Cytospora): 250 µg/mL (≈ 497 µM)
- IC50 (Acetylcholinesterase): 2.81 µM
- MIC (Candida tropicalis): inactive
- MIC (Verticillium dahliae): 125 µg/mL (≈ 249 µM)
- MIC (Ralstonia solanacearum): inactive
- MIC (Bacillus cereus): inactive
- MIC (Candida): inactive
- MIC (Fusarium oxysporum): 250 µg/mL (≈ 497 µM)
- MIC (Aspergillus flavus): 250 µg/mL (≈ 497 µM)
- MIC (Aspergillus niger): 250 µg/mL (≈ 497 µM)
- MIC (Curvularia lunata): inactive
- MIC (Pseudomonas aeruginosa): inactive
- MIC [1]: inactive
- MIC (Penicillium citrinum): 250 µg/mL (≈ 497 µM)
- MIC (Staphylococcus aureus): inactive
- MIC [2]: inactive
- MIC (Escherichia coli): inactive
- MIC (Cryptococcus neoformans): inactive
